Experimental data reported in ChEMBL document CHEMBL1156950, “Synthesis and biological evaluation of 4-anilinoquinolines as potent inhibitors of epidermal growth factor receptor” (J Med Chem, 2010).

How the values were obtained:
[1] = molecular target: Serine/threonine-protein kinase pim-2 (Homo sapiens) (UniProt Q9P1W9); test: Inhibition of PIM2 at 10 uM assessed as residual activity by [33P]ATP radioactive filter binding assay relative to control
[2] = molecular target: Serine/threonine-protein kinase Sgk1 (Homo sapiens) (UniProt O00141); test: Inhibition of SGK1 at 10 uM assessed as residual activity by [33P]ATP radioactive filter binding assay relative to control
[3] = molecular target: Glycogen synthase kinase-3 beta (Homo sapiens) (UniProt P49841); test: Inhibition of GSK3-beta at 10 uM assessed as residual activity by [33P]ATP radioactive filter binding assay relative to control
[4] = molecular target: Mitogen-activated protein kinase 10 (Homo sapiens) (UniProt P53779); test: Inhibition of JNK3 at 10 uM assessed as residual activity by [33P]ATP radioactive filter binding assay relative to control
Mitogen-activated protein kinase 10 (Homo sapiens), sequence (P53779 whole entry): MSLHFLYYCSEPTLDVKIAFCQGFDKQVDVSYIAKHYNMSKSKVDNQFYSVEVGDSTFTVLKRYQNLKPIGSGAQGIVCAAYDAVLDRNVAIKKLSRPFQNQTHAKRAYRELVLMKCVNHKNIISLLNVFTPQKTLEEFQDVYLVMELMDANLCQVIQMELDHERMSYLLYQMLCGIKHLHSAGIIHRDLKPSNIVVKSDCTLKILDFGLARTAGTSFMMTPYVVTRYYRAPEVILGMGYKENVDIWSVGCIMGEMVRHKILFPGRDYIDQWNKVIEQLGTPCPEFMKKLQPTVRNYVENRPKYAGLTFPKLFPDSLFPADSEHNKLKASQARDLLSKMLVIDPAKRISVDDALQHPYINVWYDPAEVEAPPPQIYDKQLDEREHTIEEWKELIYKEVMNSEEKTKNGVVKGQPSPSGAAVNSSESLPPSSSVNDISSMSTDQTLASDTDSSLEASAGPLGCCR

[5] = molecular target: Homeodomain-interacting protein kinase 2 (Homo sapiens) (UniProt Q9H2X6); test: Inhibition of HIPK2 at 10 uM assessed as residual activity by [33P]ATP radioactive filter binding assay relative to control
[6] = molecular target: Calcium/calmodulin-dependent protein kinase kinase 2 (Homo sapiens) (UniProt Q96RR4); test: Inhibition of CAMKKbeta at 10 uM assessed as residual activity by [33P]ATP radioactive filter binding assay relative to control
[7] = molecular target: Mitogen-activated protein kinase 12 (Homo sapiens) (UniProt P53778); test: Inhibition of p38-gamma at 10 uM assessed as residual activity by [33P]ATP radioactive filter binding assay relative to control
[8] = molecular target: Mitogen-activated protein kinase 3 (Homo sapiens) (UniProt P27361); test: Inhibition of ERK1 at 10 uM assessed as residual activity by [33P]ATP radioactive filter binding assay relative to control
[9] = molecular target: Ephrin type-A receptor 2 (Homo sapiens) (UniProt P29317); test: Inhibition of EPHA2 at 10 uM assessed as residual activity by [33P]ATP radioactive filter binding assay relative to control
[10] = molecular target: Myosin light chain kinase, smooth muscle (Homo sapiens) (UniProt Q15746); test: Inhibition of SmMLCK at 10 uM assessed as residual activity by [33P]ATP radioactive filter binding assay relative to control
[11] = molecular target: Inhibitor of nuclear factor kappa-B kinase subunit beta (Homo sapiens) (UniProt O14920); test: Inhibition of IKK-beta at 10 uM assessed as residual activity by [33P]ATP radioactive filter binding assay relative to control
cells [12] = conditions: Mus musculus, BaF3, 96 h
Description: Growth inhibition of mouse BA/F3 cells expressing EGFR Del1 and Thr790Met mutant after 96 hrs by cell titer-glo assay

[13] = molecular target: Receptor tyrosine-protein kinase erbB-4 (Homo sapiens) (UniProt Q15303); test: Inhibition of HER4 at 10 uM assessed as residual activity by [33P]ATP radioactive filter binding assay relative to control
[14] = molecular target: NUAK family SNF1-like kinase 1 (Homo sapiens) (UniProt O60285); test: Inhibition of NUAK1 at 10 uM assessed as residual activity by [33P]ATP radioactive filter binding assay relative to control
[15] = molecular target: Tyrosine-protein kinase CSK (Homo sapiens) (UniProt P41240); test: Inhibition of CSK at 10 uM assessed as residual activity by [33P]ATP radioactive filter binding assay relative to control
[16] = molecular target: Inhibitor of nuclear factor kappa-B kinase subunit epsilon (Homo sapiens) (UniProt Q14164); test: Inhibition of IKKepsilon at 10 uM assessed as residual activity by [33P]ATP radioactive filter binding assay relative to control
Inhibitor of nuclear factor kappa-B kinase subunit epsilon (Homo sapiens), sequence (Q14164 whole entry): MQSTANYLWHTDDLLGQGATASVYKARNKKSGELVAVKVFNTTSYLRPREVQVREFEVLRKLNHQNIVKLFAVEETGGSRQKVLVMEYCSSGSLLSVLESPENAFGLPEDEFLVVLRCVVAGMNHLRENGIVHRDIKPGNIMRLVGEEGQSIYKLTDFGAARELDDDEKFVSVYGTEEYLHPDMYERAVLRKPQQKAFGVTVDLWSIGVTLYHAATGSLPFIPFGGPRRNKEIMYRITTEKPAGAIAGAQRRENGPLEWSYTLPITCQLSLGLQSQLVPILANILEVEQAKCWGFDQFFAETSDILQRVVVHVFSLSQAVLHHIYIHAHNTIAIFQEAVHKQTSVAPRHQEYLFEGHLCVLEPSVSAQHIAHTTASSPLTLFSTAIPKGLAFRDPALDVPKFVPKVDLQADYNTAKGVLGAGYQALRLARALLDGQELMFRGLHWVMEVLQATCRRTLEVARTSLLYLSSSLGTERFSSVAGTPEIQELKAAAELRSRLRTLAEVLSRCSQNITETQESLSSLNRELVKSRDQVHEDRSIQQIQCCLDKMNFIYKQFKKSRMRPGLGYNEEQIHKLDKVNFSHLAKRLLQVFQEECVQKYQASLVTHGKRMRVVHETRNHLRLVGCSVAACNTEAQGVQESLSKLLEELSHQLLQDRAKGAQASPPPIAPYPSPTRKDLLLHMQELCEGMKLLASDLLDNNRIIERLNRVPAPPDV

[17] = molecular target: Tyrosine-protein kinase Lck (Homo sapiens) (UniProt P06239); test: Inhibition of Lck at 10 uM assessed as residual activity by [33P]ATP radioactive filter binding assay relative to control
Tyrosine-protein kinase Lck (Homo sapiens), sequence (P06239 2-509 limits assumed): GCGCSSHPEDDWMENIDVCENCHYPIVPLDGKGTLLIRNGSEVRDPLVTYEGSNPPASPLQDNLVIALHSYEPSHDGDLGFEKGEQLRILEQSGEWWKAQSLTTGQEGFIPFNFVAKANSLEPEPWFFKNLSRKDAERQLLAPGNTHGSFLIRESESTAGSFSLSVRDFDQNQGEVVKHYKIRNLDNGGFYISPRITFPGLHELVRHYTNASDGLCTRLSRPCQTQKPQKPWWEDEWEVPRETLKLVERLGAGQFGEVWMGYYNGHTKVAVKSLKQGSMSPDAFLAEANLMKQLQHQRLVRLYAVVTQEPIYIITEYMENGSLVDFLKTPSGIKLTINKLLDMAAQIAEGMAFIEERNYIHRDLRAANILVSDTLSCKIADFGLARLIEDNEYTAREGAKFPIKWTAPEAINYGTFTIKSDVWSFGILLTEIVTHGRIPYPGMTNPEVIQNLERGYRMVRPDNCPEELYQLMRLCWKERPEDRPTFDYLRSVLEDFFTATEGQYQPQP

[18] = molecular target: Fibroblast growth factor receptor 1 (Homo sapiens) (UniProt P11362); test: Inhibition of FGF-R1 at 10 uM assessed as residual activity by [33P]ATP radioactive filter binding assay relative to control
[19] = molecular target: Serine/threonine-protein kinase Nek2 (Homo sapiens) (UniProt P51955); test: Inhibition of NEK2a at 10 uM assessed as residual activity by [33P]ATP radioactive filter binding assay relative to control
[20] = molecular target: Tyrosine-protein kinase Yes (Homo sapiens) (UniProt P07947); test: Inhibition of YES1 at 10 uM assessed as residual activity by [33P]ATP radioactive filter binding assay relative to control
Tyrosine-protein kinase Yes (Homo sapiens), sequence (P07947 2-543 limits assumed): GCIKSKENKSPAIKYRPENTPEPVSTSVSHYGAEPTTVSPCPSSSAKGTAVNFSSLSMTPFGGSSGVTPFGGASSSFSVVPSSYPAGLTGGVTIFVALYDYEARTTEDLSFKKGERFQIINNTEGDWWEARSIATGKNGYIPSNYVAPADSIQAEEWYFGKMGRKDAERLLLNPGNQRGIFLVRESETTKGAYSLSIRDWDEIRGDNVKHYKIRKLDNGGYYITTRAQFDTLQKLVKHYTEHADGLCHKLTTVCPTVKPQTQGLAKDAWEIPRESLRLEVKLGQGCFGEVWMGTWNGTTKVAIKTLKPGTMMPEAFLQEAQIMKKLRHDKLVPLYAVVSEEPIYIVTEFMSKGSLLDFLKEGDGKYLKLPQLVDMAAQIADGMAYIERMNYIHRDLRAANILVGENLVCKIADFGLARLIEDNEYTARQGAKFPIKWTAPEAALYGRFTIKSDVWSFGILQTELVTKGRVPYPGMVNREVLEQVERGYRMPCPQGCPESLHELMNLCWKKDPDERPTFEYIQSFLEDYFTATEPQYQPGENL

cells [21] = conditions: Mus musculus, BaF3, 96 h; remark: listed apart in the source
Description: Growth inhibition of mouse BA/F3 cells expressing EGFR Del3 and Thr790Met mutant after 96 hrs by cell titer-glo assay

[22] = Inhibition of PHK at 10 uM assessed as residual activity by [33P]ATP radioactive filter binding assay relative to control
[23] = molecular target: Serine/threonine-protein kinase Chk2 (Homo sapiens) (UniProt O96017); test: Inhibition of CHK2 at 10 uM assessed as residual activity by [33P]ATP radioactive filter binding assay relative to control
Serine/threonine-protein kinase Chk2 (Homo sapiens), sequence (O96017 whole entry): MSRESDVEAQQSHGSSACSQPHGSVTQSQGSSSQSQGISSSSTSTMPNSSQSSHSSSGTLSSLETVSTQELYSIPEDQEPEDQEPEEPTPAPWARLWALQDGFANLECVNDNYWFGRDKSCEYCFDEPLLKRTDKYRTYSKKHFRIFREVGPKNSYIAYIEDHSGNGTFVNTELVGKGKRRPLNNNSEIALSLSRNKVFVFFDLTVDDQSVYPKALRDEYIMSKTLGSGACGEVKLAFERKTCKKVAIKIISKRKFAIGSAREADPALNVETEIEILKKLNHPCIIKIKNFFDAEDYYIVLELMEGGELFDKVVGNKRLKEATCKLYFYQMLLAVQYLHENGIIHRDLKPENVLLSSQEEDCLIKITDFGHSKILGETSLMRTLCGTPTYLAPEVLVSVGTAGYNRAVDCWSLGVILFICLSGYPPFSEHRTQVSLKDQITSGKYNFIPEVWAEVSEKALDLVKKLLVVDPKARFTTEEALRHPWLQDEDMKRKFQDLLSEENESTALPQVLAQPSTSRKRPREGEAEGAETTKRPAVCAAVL

[24] = molecular target: Serine/threonine-protein kinase Chk1 (Homo sapiens) (UniProt O14757); test: Inhibition of CHK1 at 10 uM assessed as residual activity by [33P]ATP radioactive filter binding assay relative to control
Serine/threonine-protein kinase Chk1 (Homo sapiens), sequence (O14757 whole entry): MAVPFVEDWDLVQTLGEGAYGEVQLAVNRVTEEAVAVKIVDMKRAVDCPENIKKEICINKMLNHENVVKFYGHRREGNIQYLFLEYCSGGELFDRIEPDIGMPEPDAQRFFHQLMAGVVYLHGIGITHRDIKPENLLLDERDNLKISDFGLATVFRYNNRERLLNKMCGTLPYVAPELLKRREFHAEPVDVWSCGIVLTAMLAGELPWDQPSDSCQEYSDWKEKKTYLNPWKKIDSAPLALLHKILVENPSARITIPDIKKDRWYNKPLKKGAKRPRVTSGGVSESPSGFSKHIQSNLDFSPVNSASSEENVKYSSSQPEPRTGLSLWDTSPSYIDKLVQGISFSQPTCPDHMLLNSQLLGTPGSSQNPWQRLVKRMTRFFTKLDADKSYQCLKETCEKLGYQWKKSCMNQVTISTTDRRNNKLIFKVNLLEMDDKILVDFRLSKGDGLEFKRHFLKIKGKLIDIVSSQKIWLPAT

[25] = molecular target: MAP kinase-activated protein kinase 5 (Homo sapiens) (UniProt Q8IW41); test: Inhibition of PRAK at 10 uM assessed as residual activity by [33P]ATP radioactive filter binding assay relative to control
MAP kinase-activated protein kinase 5 (Homo sapiens), sequence (Q8IW41 whole entry): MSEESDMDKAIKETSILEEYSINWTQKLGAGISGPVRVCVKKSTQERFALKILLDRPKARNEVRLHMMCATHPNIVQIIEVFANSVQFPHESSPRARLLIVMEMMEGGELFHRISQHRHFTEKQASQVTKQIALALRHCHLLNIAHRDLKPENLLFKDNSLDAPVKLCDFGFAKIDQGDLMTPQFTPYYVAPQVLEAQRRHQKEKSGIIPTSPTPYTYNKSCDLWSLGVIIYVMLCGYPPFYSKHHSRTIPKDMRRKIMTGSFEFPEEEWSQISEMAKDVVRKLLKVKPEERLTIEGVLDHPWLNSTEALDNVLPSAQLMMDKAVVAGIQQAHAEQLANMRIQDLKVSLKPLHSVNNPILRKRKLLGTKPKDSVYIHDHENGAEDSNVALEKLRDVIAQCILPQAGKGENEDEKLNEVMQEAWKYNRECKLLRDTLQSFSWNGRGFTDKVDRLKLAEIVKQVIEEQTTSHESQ

[26] = molecular target: Homeodomain-interacting protein kinase 3 (Homo sapiens) (UniProt Q9H422); test: Inhibition of HIPK3 at 10 uM assessed as residual activity by [33P]ATP radioactive filter binding assay relative to control
[27] = molecular target: Serine/threonine-protein kinase STK11 (Homo sapiens) (UniProt Q15831); test: Inhibition of LKB1 at 10 uM assessed as residual activity by [33P]ATP radioactive filter binding assay relative to control
Serine/threonine-protein kinase STK11 (Homo sapiens), sequence (Q15831 whole entry): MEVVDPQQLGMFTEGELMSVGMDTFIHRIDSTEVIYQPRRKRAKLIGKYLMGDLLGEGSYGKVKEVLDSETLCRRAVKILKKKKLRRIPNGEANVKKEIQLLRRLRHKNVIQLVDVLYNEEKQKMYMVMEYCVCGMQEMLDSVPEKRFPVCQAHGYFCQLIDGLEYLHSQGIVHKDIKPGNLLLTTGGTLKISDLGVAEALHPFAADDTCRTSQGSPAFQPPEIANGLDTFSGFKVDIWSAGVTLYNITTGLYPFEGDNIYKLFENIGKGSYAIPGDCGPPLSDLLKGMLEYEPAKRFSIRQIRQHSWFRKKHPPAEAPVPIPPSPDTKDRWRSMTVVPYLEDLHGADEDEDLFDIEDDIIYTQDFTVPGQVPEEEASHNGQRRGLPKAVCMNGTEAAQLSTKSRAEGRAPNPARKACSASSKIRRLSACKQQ

[28] = molecular target: Aurora kinase A (Homo sapiens) (UniProt O14965); test: Inhibition of Aurora A at 10 uM assessed as residual activity by [33P]ATP radioactive filter binding assay relative to control
Aurora kinase A (Homo sapiens), sequence (O14965 whole entry): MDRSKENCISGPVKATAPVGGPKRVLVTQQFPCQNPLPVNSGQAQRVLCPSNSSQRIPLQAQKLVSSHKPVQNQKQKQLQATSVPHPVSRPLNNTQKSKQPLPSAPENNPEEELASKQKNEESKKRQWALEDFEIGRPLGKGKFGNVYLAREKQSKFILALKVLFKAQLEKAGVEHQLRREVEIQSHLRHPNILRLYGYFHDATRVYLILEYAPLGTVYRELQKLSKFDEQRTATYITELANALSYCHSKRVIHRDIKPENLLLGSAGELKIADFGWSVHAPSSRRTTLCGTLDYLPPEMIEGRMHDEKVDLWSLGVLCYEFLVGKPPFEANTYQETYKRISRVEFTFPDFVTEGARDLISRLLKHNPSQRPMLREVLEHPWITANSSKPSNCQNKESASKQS

cells [29] = conditions: Mus musculus, BaF3, 96 h; remark: listed apart in the source
Description: Growth inhibition of mouse BA/F3 cells expressing EGFR Del1 mutant after 96 hrs by cell titer-glo assay

[30] = molecular target: Tyrosine-protein kinase BTK (Homo sapiens) (UniProt Q06187); test: Inhibition of BTK at 10 uM assessed as residual activity by [33P]ATP radioactive filter binding assay relative to control
[31] = molecular target: Homeodomain-interacting protein kinase 1 (Homo sapiens) (UniProt Q86Z02); test: Inhibition of HIPK1 at 10 uM assessed as residual activity by [33P]ATP radioactive filter binding assay relative to control
cells [32] = conditions: Mus musculus, BaF3, 96 h; remark: listed apart in the source
Description: Growth inhibition of mouse BA/F3 cells expressing EGFR Del5 and Thr790Met mutant after 96 hrs by cell titer-glo assay

[33] = molecular target: Serine/threonine-protein kinase PAK 6 (Homo sapiens) (UniProt Q9NQU5); test: Inhibition of PAK6 at 10 uM assessed as residual activity by [33P]ATP radioactive filter binding assay relative to control
[34] = molecular target: Cyclin-dependent kinase 2/cyclin A (Homo sapiens) (UniProt P24941+P20248+P78396); test: Inhibition of CDK2/Cyclin A at 10 uM assessed as residual activity by [33P]ATP radioactive filter binding assay relative to control; assay type: protein-complex assay

Serine/threonine-protein kinase pim-2 (Homo sapiens), sequence (Q9P1W9 whole entry, looked up): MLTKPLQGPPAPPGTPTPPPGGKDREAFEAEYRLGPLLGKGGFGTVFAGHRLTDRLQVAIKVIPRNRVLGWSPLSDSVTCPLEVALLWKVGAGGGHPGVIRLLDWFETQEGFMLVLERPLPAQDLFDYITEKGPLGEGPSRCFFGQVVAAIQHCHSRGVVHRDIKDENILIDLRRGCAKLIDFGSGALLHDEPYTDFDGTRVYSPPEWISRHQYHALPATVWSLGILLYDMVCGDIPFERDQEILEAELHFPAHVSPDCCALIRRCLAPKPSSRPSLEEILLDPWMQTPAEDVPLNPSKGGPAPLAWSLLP

Compound	Activity [1] [%]	Activity [2] [%]	Activity [3] [%]	Activity [4] [%]	Activity [5] [%]	Activity [6] [%]	Activity [7] [%]	Activity [8] [%]	Activity [9] [%]	Activity [10] [%]	Activity [11] [%]	GI50 (cells [12]) [nM]	Activity [13] [%]	Activity [14] [%]	Activity [15] [%]	Activity [16] [%]	Activity [17] [%]	Activity [18] [%]	Activity [19] [%]	Activity [20] [%]	also measured
CN(C)CCCC(=O)Nc1ccc2nccc(Nc3cccc(Br)c3)c2c1	75	82	89	62	104	74	94	82	26	48	62	> 500	-10	37	73	92	1	31	95	4	GI50 (cells [21]): > 500 nM; Activity [22]: 26%; Activity [23]: 27%; Activity [24]: 83%; Activity [25]: 84%; Activity [26]: 96%; Activity [27]: 94%; Activity [28]: 88%; GI50 (cells [29]): < 500 nM; Activity [30]: 36%; Activity [31]: 103%; GI50 (cells [32]): > 500 nM; Activity [33]: 82%; Activity [34]: 88%
CN(C)CCCC(=O)Nc1ccc2ncnc(Nc3cccc(Br)c3)c2c1	62	72	96	72	97	66	85	83	53	18	90	> 5000	-12	39	63	89	3	37	96	7	GI50 (cells [21]): > 5000 nM; Activity [22]: 10%; Activity [23]: 38%; Activity [24]: 79%; Activity [25]: 89%; Activity [26]: 106%; Activity [27]: 103%; Activity [28]: 66%; GI50 (cells [29]): < 500 nM; Activity [30]: 79%; Activity [31]: 126%; GI50 (cells [32]): > 5000 nM; Activity [33]: 93%; Activity [34]: 93%
